Data on 2 molecules can be found in US7767814B2, “Substituted piperidine compounds and methods of their use” (Adolor Corporation, priority 2004, dated 2010).

A word on the Ki: it is the dissociation constant of the complex between target and ligand, obtained from inhibition or displacement.

The target in assay [1] is T1, cloned human μ opioid receptor (Homo sapiens, UniProt P35372).
T1 construct: expressed in transfected cells; membranes used
The experiment in a line: [3H]diprenorphine receptor binding, cloned human μ opioid receptor. As to the method: IC50 values were obtained by nonlinear analysis of the data using GraphPad Prism version 3.00 for Windows (GraphPad Software, San Diego). Ki values were obtained by Cheng-Prusoff corrections of IC50 values.
After dilution in buffer A and homogenization as before, membrane proteins (10-80 μg) in 250 μL were added to mixtures containing test compound and [^3H]diprenorphine (0.5 to 1.0 nM, 40,000 to 50,000 dpm) in 250 μL of buffer A in 96-well deep-well polystyrene titer plates (Beckman). […] The filters were rinsed 4 times with 1 mL of cold 50 mM Tris HCl, pH 7.8 and radioactivity remaining on the filters determined by scintillation spectroscopy. Nonspecific binding was determined by the minimum values of the titration curves and was confirmed by separate assay wells containing 10 μM naloxone.
To determine the equilibrium dissociation constant for the inhibitors (Ki), radioligand bound (cpm) in the presence of various concentrations of test compounds was measured. The concentration to give half-maximal inhibition (EC50) of radioligand binding was determined from a best nonlinear regression fit to the following equation, […]

Assay [2] addresses cloned human δ opioid receptor (Homo sapiens, UniProt P41143). Conditions: cloned human opioid receptors; background statement; read-out: Ki, inhibition of [3H]diprenorphine binding, δ receptor; cited from earlier work.
Assay [3] has as its target cloned human κ opioid receptor (Homo sapiens, UniProt P41145). Conditions: cloned human opioid receptors; background statement; read-out: Ki, inhibition of [3H]diprenorphine binding, κ receptor; cited from earlier work.

T1 sequence (P35372 whole entry): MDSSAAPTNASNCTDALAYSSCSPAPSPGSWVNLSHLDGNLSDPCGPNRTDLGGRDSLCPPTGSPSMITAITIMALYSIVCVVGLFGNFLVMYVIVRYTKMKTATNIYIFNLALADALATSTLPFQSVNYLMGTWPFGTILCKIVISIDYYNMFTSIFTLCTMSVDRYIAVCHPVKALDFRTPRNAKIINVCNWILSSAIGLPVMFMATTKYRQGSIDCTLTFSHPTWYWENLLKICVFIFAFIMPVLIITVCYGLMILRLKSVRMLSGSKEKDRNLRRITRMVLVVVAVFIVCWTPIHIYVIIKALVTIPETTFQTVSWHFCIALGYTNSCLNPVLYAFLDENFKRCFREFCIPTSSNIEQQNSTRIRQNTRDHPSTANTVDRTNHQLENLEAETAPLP
cloned human δ opioid receptor, sequence (P41143 whole entry): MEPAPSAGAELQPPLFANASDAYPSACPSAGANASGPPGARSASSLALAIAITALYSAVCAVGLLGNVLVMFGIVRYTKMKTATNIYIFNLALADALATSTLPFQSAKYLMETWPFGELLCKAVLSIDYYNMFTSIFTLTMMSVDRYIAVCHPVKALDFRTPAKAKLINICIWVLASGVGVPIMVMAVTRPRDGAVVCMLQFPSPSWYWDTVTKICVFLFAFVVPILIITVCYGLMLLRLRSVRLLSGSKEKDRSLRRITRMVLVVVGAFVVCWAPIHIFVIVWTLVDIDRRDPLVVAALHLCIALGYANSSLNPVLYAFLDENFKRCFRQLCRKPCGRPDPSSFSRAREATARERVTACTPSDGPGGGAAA
cloned human κ opioid receptor, sequence (P41145 whole entry): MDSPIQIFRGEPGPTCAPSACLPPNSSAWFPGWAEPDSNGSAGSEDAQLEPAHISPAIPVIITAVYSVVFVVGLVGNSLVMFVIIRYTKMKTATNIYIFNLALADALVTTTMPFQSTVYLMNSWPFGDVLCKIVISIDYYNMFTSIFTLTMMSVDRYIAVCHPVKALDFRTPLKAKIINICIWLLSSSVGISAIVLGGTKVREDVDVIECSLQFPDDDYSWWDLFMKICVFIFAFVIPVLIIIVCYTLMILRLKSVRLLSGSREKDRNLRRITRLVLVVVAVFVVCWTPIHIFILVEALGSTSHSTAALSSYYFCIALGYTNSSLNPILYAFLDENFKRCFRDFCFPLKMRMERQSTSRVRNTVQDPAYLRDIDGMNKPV

As for `C[C@H]1C2CCC[C@]1(c1cccc(O)c1)CCN2C[C@H](Cc1ccccc1)C(=O)NCC(=O)O` [Example 2, {2S-Benzyl-3-[5-(3-hydroxy-phenyl)-9-methyl-2-aza-bicyclo[3.3.1]non-2-yl]-propionylamino}-acetic acid], the inhibitory constant (Ki) in assay [1] was found to be 1.5 nM.
`C[C@H]1CN(C[C@H](Cc2ccccc2)C(=O)NCC(=O)O)CC[C@@]1(C)c1cccc(O)c1` [Alvimopan]: the inhibition constant Ki is 10 nM in assay [2] and 92 nM in assay [3].
